Like-named read-outs stand apart in the source and are kept apart here.
What was measured:
[1] = target: T1, murine Aurora-A (Mus musculus, UniProt P97477); assay: Aurora-A Screening Assay; assay type: biochemical
T1 construct: replaced with the full length protein encoding the murine Aurora-A; made in house; host or cells: sf9 insect cells
T1 sequence (P97477 1-395): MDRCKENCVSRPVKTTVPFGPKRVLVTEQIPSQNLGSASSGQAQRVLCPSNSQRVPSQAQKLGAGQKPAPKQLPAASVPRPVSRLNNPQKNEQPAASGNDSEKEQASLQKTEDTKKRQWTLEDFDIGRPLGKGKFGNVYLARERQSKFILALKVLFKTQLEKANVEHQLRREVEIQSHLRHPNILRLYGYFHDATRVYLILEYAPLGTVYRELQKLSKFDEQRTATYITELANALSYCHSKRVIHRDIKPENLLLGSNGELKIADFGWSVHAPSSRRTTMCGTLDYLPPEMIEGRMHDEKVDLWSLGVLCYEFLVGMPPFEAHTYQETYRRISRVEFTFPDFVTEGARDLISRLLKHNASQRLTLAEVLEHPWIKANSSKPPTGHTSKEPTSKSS
Protocol: (§1) A kinase reaction mixture was prepared containing 50 mM Tris-HCl pH=8, 10 mM MgCl2, 0.1 mM Na3PO4, 1 mM DTT, 10 μM ATP, 0.025 μM biotinylated histone-H1 peptide substrate and 0.2 μCuries per well ^33P-γ-ATP (2000-3000 Ci/mmol). 70 μL of the kinase reaction mixture was dispensed into the well of a streptavidin coated FlashPlate™ (Cat. # SMP103, NEN, Boston, Mass.). Then 1 μL of test compound stock in 100% DMSO was added to the wells resulting in a final concentration of 1% DMSO in the reaction with a 100 μL final reaction volume.
(§2) The CDK1:Cyclin-B protein was diluted in 50 mM Tris-HCl pH=8.0, 0.1% BSA at a concentration of 1 ng per μL and 30 μL (30 ng enzyme per test well) was added to each well to initiate the reaction. The reaction was incubated for one hour at 30° C. At the end of the 1 hour incubation, the reaction was terminated by aspirating the mixture from the plate and washing the wells twice with PBS containing 100 mM EDTA. The histone-H1 biotinylated peptide substrate became immobilized on the Flashplate™ and the incorporation of ^33P-γ-ATP was measured by reading the plate on a scintillation counter. Inhibition of the enzymatic activity of CDK1 was measured by observing a reduced amount of ^33P-γ-ATP incorporated into the immobilized peptide.
The Aurora-A kinase assay was carried out using the CDK kinase assay procedure except that the enzyme was replaced with the full length protein encoding the murine Aurora-A (Accession #GB BC014711) expressed and purified from sf9 insect cells.

[2] = target: T2, HER2 cytoplasmic domain (Homo sapiens, UniProt P04626); assay: HER2 Kinase Screening Assay; assay type: biochemical; conditions: > means no observed 50% inhibition at the indicated test concentration; ~ means approximately 50% inhibition at that concentration
T2 construct: polyhistidine (N)
Protocol: as §1, §2
The HER2 kinase assay was carried out using the CDK kinase assay procedure except that the enzyme was replaced with a HER2 construct containing a polyhistidine tag at the N-terminus followed by 24 additional amino acids and the HER2 cytoplasmic domain beginning at amino acid 676 (Accession #M11730) to the end.

[3] = tested on: HeLa cervical adenocarcinoma; assay: Inhibition of in vitro cell proliferation (HeLa); assay type: cell-based, human; conditions: 14C-thymidine incorporation;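 note: cells exposed to compound for 24 h, then labelled 24 h with methyl 14C-thymidine, with uptake into DNA counted by scintillation against DMSO-only control wells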
[4] = target: T3, rat VEGF-R2 kinase domain (Rattus norvegicus, UniProt O08775); assay: VEGF-R2 Screening Assay; assay type: biochemical; conditions: > means no observed 50% inhibition at the indicated test concentration; ~ means approximately 50% inhibition at that concentration; read-out: IC50 VEGF-R2
T3 construct: amino acids 786-1343 of the rat VEGF-R2 kinase domain; polyhistidine (N)

[5] = tested on: HCT-116 colon carcinoma; assay: Inhibition of in vitro cell proliferation (HCT116); assay type: cell-based, human;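 note: cells exposed to compound for 24 h, then 14C-thymidine added for a further 24 h and its uptake into DNA counted by scintillation, DMSO-only wells as control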
[6] = target: T4, CDK1:Cyclin-B (Homo sapiens, UniProt P06493); assay: CDK1 Screening Assay; assay type: biochemical
T4 construct: purchased New England Biolabs, Beverly, Mass; 6020; host or cells: insect cells
Protocol: as §1, §2
The CDK1 used was isolated from insect cells expressing both the human CDK1 catalytic subunit and its positive regulatory subunit cyclin B (New England Biolabs, Beverly, Mass., Cat. #6020).

[7] = tested on: A375 malignant melanoma; assay: Inhibition of in vitro cell proliferation (A375); assay type: cell-based, human;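 note: cells plated for 24 h, given compound for 24 h, then labelled with 14C-thymidine for another 24 h, with DMSO-only wells as control and counts read by scintillation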
[8] = Homo sapiens, HCT-116, 14C-thymidine incorporation
[9] = Homo sapiens, A-375, 14C-thymidine incorporation
[10] = > means no observed 50% inhibition at the indicated test concentration, ~ means approximately 50% inhibition at that concentration

T2 sequence (P04626 676-1255 limits assumed): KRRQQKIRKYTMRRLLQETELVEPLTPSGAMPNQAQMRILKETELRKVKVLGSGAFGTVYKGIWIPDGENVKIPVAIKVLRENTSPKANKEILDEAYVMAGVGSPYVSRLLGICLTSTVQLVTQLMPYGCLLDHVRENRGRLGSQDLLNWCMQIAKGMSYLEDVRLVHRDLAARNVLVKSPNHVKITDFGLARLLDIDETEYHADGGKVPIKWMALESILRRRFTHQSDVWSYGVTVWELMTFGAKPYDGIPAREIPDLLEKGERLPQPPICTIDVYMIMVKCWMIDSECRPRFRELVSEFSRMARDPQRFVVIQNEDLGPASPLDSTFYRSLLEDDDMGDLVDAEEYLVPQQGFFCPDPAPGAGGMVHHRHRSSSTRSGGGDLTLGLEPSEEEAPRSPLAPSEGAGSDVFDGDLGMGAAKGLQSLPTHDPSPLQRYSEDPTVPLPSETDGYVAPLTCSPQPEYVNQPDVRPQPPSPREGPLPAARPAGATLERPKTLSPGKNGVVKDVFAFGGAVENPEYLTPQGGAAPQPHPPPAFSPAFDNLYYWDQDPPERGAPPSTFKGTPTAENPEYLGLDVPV
T3 sequence (O08775 786-1343): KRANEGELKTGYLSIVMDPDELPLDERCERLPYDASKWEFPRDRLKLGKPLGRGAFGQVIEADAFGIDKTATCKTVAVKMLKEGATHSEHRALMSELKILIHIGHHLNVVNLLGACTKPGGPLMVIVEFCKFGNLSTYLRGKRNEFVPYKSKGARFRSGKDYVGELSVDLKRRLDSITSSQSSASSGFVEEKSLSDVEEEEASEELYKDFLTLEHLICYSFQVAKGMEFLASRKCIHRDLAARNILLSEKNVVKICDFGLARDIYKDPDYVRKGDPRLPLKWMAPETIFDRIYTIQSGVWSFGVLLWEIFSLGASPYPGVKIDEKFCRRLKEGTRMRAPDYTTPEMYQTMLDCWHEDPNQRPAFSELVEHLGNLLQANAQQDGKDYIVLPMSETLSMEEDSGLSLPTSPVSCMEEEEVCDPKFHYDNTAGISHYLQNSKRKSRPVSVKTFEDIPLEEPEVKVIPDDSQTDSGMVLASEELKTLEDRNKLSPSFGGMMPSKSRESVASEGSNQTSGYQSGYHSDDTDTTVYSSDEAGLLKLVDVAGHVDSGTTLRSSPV
T4 sequence (P06493 whole entry): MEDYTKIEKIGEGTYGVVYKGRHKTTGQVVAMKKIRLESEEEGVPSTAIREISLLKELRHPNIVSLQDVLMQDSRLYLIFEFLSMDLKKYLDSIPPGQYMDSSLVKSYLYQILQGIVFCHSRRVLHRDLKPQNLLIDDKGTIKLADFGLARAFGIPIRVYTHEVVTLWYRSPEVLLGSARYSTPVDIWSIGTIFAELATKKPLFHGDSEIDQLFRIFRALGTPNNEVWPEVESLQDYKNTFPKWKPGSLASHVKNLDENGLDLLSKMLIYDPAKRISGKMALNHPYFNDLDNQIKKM
T4 sequence (P14635 whole entry partner): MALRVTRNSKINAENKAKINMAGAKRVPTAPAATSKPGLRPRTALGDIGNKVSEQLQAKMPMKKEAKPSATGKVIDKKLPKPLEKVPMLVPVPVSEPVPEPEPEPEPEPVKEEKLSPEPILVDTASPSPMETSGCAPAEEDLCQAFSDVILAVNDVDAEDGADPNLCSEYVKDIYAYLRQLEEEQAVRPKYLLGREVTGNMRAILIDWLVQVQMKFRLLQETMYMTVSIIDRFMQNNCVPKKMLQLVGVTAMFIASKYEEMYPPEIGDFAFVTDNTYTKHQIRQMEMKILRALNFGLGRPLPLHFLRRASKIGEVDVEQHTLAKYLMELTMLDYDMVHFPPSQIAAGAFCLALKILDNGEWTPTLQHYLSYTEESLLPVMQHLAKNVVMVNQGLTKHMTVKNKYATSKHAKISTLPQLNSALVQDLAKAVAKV

| SMILES | IC50 [1] | IC50 [2] | IC50 ([3]; Homo sapiens) | IC50 [4] | IC50 [5, 8] | IC50 [6] | IC50 [7, 9] | IC50 [3] | IC50 ([5]; 14C-thymidine incorporation) | IC50 ([7]; 14C-thymidine incorporation) | IC50 [1, 10] | IC50 [6, 10] |
| --- | --- | --- | --- | --- | --- | --- | --- | --- | --- | --- | --- | --- |
| CON=Cc1c(N)ncnc1Oc1ccc(NC(=O)Nc2ccc(F)cc2F)c(Cl)c1 [Cpd 61, 1-{4-[6-amino-5-(methoxyimino-methyl)-pyrimidin-4-yloxy]-2-chloro-phenyl}-3-(2,4-difluoro-phenyl)-urea] | > 100 µM | > 100 µM | > 100 µM | 0.003 µM | > 10 µM | > 100 µM | > 100 µM |  |  |  |  |  |
| CON=Cc1c(N)ncnc1Oc1ccc(NC(=O)Nc2ccc(OC)cc2)c(Cl)c1 [Cpd 62, 1-{4-[6-amino-5-(methoxyimino-methyl)-pyrimidin-4-yloxy]-2-chloro-phenyl}-3-(4-methoxy-phenyl)-urea] | > 100 µM | > 100 µM |  | 0.0016 µM |  | > 100 µM |  | > 100 µM | > 100 µM | > 100 µM |  |  |
| CON=Cc1c(N)ncnc1Oc1ccc(NC(=O)Nc2ccc(OC)cc2)c(Cl)c1 [Cpd 63, 1-{4-[6-amino-5-(methoxyimino-methyl)-pyrimidin-4-yloxy]-2-chloro-phenyl}-3-(4-methoxy-phenyl)-urea] |  | > 10 µM |  | 0.0022 µM |  |  |  | > 10 µM | > 10 µM | > 10 µM | > 100 µM | > 100 µM |
| CCCCNC(=O)Nc1ccc(Oc2ncnc(N)c2C=NOC)cc1Cl [Cpd 64, 1-{4-[6-amino-5-(methoxyimino-methyl)-pyrimidin-4-yloxy]-2-chloro-phenyl}-3-butyl-urea] | > 100 µM | > 100 µM | > 100 µM | 0.0072 µM | > 100 µM | > 100 µM | > 100 µM |  |  |  |  |  |
| CON=Cc1c(N)ncnc1Oc1ccc(NC(=O)NC2CCCCC2)c(Cl)c1 [Cpd 65, 1-{4-[6-amino-5-(methoxyimino-methyl)-pyrimidin-4-yloxy]-2-chloro-phenyl}-3-cyclohexyl-urea] | > 100 µM | > 10 µM | > 100 µM | 0.0065 µM | > 100 µM | > 100 µM | > 100 µM |  |  |  |  |  |
| CON=Cc1c(N)ncnc1Oc1ccc(O)cc1 [Cpd 67, 4-amino-6-(4-hydroxy-phenoxy)-pyrimidine-5-carbaldehyde O-methyl-oxime] | 17.8 µM | 13.1 µM | 3.99 µM | 4.36 µM | 2.95 µM | > 100 µM | 3.22 µM |  |  |  |  |  |
| CNC(=O)Nc1ccc(Oc2ncnc(N)c2C=NOC)c(Cl)c1 [Cpd 70, 1-{4-[6-amino-5-(methoxyimino-methyl)-pyrimidin-4-yloxy]-3-chloro-phenyl}-3-methyl-urea] | > 10 µM | > 100 µM | 4.06 µM | 0.278 µM | 4.86 µM | > 100 µM | 2.55 µM |  |  |  |  |  |
| CCNC(=O)Nc1ccc(Oc2ncnc(N)c2C=NOC)c(Cl)c1 [Cpd 71, 1-{4-[6-amino-5-(methoxyimino-methyl)-pyrimidin-4-yloxy]-3-chloro-phenyl}-3-ethyl-urea] | > 10 µM | > 1 µM | 3.98 µM | 0.179 µM | 4.79 µM | > 100 µM | 3.09 µM |  |  |  |  |  |
| CNC(=O)Nc1ccc(Oc2ncnc(N)c2C=NOC)cc1F [Cpd 72, 1-{4-[6-amino-5-(methoxyimino-methyl)-pyrimidin-4-yloxy]-2-fluoro-phenyl}-3-methyl-urea] | > 100 µM | > 10 µM | > 10 µM | 0.142 µM | > 10 µM | > 100 µM | > 10 µM |  |  |  |  |  |
| CNC(=O)Nc1ccc(Oc2ncnc(N)c2C=NOC)cc1Br [Cpd 73, 1-{4-[6-amino-5-(methoxyimino-methyl)-pyrimidin-4-yloxy]-2-bromo-phenyl}-3-methyl-urea] | > 10 µM | > 1 µM | > 10 µM | > 100 µM | > 10 µM | > 10 µM | > 10 µM |  |  |  |  |  |
| CON=Cc1c(N)ncnc1Oc1ccc(NC(=O)Nc2ccc(F)cc2)c(Br)c1 [Cpd 74, 1-{4-[6-amino-5-(methoxyimino-methyl)-pyrimidin-4-yloxy]-2-bromo-phenyl}-3-(4-fluoro-phenyl)-urea] | > 100 µM | > 1 µM | > 100 µM | ~100 µM | > 100 µM | > 100 µM | > 10 µM |  |  |  |  |  |
| CON=Cc1c(N)ncnc1Oc1ccc(NC(=O)Nc2ccccc2C)c(Cl)c1 [Cpd 75, 1-{4-[6-amino-5-(methoxyimino-methyl)-pyrimidin-4-yloxy]-2-chloro-phenyl}-3-o-tolyl-urea] | > 100 µM | > 100 µM | > 100 µM | 0.0079 µM | > 100 µM | > 100 µM | > 100 µM |  |  |  |  |  |
| CON=Cc1c(N)ncnc1Oc1ccc(NC(=O)Nc2cccc(C)c2)c(Cl)c1 [Cpd 76, 1-{4-[6-amino-5-(methoxyimino-methyl)-pyrimidin-4-yloxy]-2-chloro-phenyl}-3-m-tolyl-urea] | > 100 µM | > 10 µM | > 10 µM | 0.002 µM | > 10 µM | > 100 µM | > 10 µM |  |  |  |  |  |
| CON=Cc1c(N)ncnc1Oc1ccc(NC(=O)Nc2ccc(C)cc2)c(Cl)c1 [Cpd 77, 1-{4-[6-amino-5-(methoxyimino-methyl)-pyrimidin-4-yloxy]-2-chloro-phenyl}-3-p-tolyl-urea] | > 100 µM | > 100 µM | > 100 µM | 0.0016 µM | > 100 µM | > 100 µM | > 100 µM |  |  |  |  |  |
| CON=Cc1c(N)ncnc1Oc1ccc(NC(=O)NCc2ccc(F)cc2F)c(Cl)c1 [Cpd 78, 1-{4-[6-amino-5-(methoxyimino-methyl)-pyrimidin-4-yloxy]-2-chloro-phenyl}-3-(2,4-difluoro-benzyl)-urea] | > 100 µM | > 100 µM | > 100 µM | 0.0103 µM | > 100 µM | > 100 µM | > 100 µM |  |  |  |  |  |
| C#CCNC(=O)Nc1ccc(Oc2ncnc(N)c2C=NOC)cc1Cl [Cpd 79, 1-{4-[6-amino-5-(methoxyimino-methyl)-pyrimidin-4-yloxy]-2-chloro-phenyl}-3-prop-2-ynyl-urea] | > 100 µM | > 100 µM | 3.58 µM | 0.0275 µM | 3.72 µM | > 100 µM | 2.2 µM |  |  |  |  |  |
| CON=Cc1c(N)ncnc1Oc1ccc(NC(=O)NC(C)C)c(Cl)c1 [Cpd 80, 1-{4-[6-amino-5-(methoxyimino-methyl)-pyrimidin-4-yloxy]-2-chloro-phenyl}-3-isopropyl-urea] | > 10 µM | > 10 µM | > 10 µM | 0.0729 µM | > 10 µM | > 100 µM | > 1 µM |  |  |  |  |  |
| CON=Cc1c(N)ncnc1Oc1ccc(NC(=O)NCCO)c(Cl)c1 [Cpd 81, 1-{4-[6-amino-5-(methoxyimino-methyl)-pyrimidin-4-yloxy]-2-chloro-phenyl}-3-(2-hydroxy-ethyl)-urea] | > 100 µM | > 100 µM | 4.27 µM | 0.168 µM | 4.06 µM | > 100 µM | 3.91 µM |  |  |  |  |  |

— patent publication US8013153B2, “Substituted pyrimidine kinase inhibitors” (Janssen Pharmaceutica, N.V., priority 2006, dated 2011)
